Data as given in US12624350B2, “High-throughput single-nuclei and single-cell libraries and methods of making and of using” (ILLUMINA, INC., priority 2019, dated 2026).

Key:
Format in all cases: cell-based, human
[1] = system: A549, MCF7 and K562 cells; assay: flow cytometry of total cellular acetylated lysines; design: dose or concentration left out as unconfirmed; conditions: 24 hours
Procedure: A549 and MCF7 cells were seeded in 6 cm dishes at 1.6×10^6 cells per plate. K562 cells were seeded in T25 cm2 flasks at 1.6×10^6 cells per flask. […] After treatment cells were harvested as described above, pellets washed twice in PBS, resuspended in 500 μL of cold PBS and fixed by the addition of 5 mL of ice-cold ethanol while vortexing at low speed. Cells were stored at −20 C prior to processing for flow cytometry analysis. For flow cytometry, ethanol was removed and fixed cells washed twice with PBS containing 1% BSA (PBS-B) and blocked for 1 hour at room temperature. Then, blocking buffer was removed and cells were incubated in PBS containing 1% BSA and 0.1% tryton X-100 (PBS-BT) as well as a 1:500 dilution of mouse anti-acetyl-lysine antibody (cat no. ICP0390, ImmuneChem Pharmaceuticals Inc) for 2 hours at room temperature. After incubation, cells were washed twice with PBS-BT and incubated with goat anti-mouse Alexa-647 in PBS-BT for 1 hour at room temperature. Lastly, cells were washed twice with PBS-BT, once with PBS-B and resuspended in PBS-B containing 5 μg/ml Hoechst 33258 (Life Sciences Technologies) to stain the DNA. Then the levels of total acetylated-lysine and DNA content was analyzed by flow cytometry on an LSRII flow cytometer (BD Biosciences). Quantification and downstream analysis was performed using FlowJo10 (FlowJo.LLC).

A549 [2] = assay: large-scale sci-Plex screen (sci-RNA-seq3) of 188 compounds; conditions: A549, 24 hours; for distinct transcriptional states induced by the same drug (focal enrichments in UMAP): cells from all four doses
Procedure: We exposed three well-characterized human cancer cell lines, A549 (lung adenocarcinoma), K562 (chronic myelogenous leukemia), and MCF7 (mammary adenocarcinoma), to each of these 188 compounds at four doses (10 nM, 100 nM, 1 mM, and 10 mM) in duplicate, randomizing compounds and doses across well positions in replicate culture plates (data not shown). These conditions, together with vehicle controls, accounted for 4608 of 4992 independently treated cell populations in this experiment. After treatment, we lysed cells to expose nuclei, hashed them with a specific combination of two oligos (FIG. 10A), and performed sci-RNA-seq3 (21).
Lysis was conducted in the 96 well V-bottom plate. […] For the large compound screen, 500 femtomoles of an additional oligo was used to uniquely index each 96 well treatment plate. After lysis with 3 strokes of multichannel pipette, cells were fixed by addition of 200 μL of fixation buffer (5% Paraformaldehyde, 1.25×PBS). Nuclei were then fixed on ice for 15 minutes before pooling into a trough. Nuclei were pooled by plate into a 50 mL conical tube and pelleted by centrifugation at 500×g for 5 minutes. Subsequently, cells were resuspended in 500 μL of nuclei suspension buffer (NSB; (10 mM Tris-HCl, pH 7.4, 10 mM NaCl, 3 mM MgCl2, 1% Superase RNA Inhibitor, 1% 0.2 mg/mL Ultrapure BSA)). Finally, nuclei from all plates were pooled into a single conical tube and nuclei were pelleted by centrifugation at 500×g for 5 minutes. Nuclei were then resuspended in 1 mL of NSB and flash frozen into liquid nitrogen in 100 μL aliquots. Nuclei were then stored at −80 C until further processing with sci-RNA-seq.

[3] = system: lung adenocarcinoma-derived (A549) cells; assay: sciPlex-ATAC-seq chemical screen (single-cell chromatin accessibility); conditions: A549, 24 hours
Procedure: Each well of a 96-well culture dish was treated for 24 hours with Nutlin-3A (p53 agonist), SAHA (broad spectrum histone deacetylase inhibitor), BMS345541 (NF-kB inhibitor), Dexamethasone (glucocorticoid receptor agonist) or a vehicle control. Moreover, we varied the dose of drug added to each well, such that the effects of each compound could be evaluated at seven different concentrations. Finally, all treatments were performed in biological triplicate (FIG. 42A). After applying unique labels to each well, cells from all conditions were pooled for parallel preparation of single cell accessible chromatin profiles.
Adherent cells grown in 96 well format were prepared by first aspirating the existing media. 50 µL of TrypLE (Termo-Fisher) was then added per well and the plate was incubated at 37 C for 15 minutes for A549. After incubation, 1504 of 1×DMEM (Gibco)+10% FBS (Gibco) was added to quench the TrypLE reaction. The 2004 volume cell suspension in each well was then transferred into a V-bottom 96 well plate, preserving the well orientations. Cells were then spun for 5 minutes at 300 g to pellet cells before aspirating media. Cell pellets were washed with 100 μL 1×DPBS and then pelleted at 300 g for 5 minutes. […]
Pooled, hash-labeled nuclei were thawed on ice, inspected for nuclei integrity, counted and further adjusted to 2.5 million nuclei/mL if necessary. […]

A549 [4] = assay: sci-Plex of pracinostat co-treatment with acetyl-CoA precursors or enzyme inhibitors; conditions: 24 hours
Text: (§1) To validate this further, we sought to shift the distribution of cells along the HDAC inhibitor trajectory by modulating cellular acetyl-CoA levels. We treated A549 and MCF7 cells with pracinostat in the presence and absence of acetyl-CoA precursors (acetate, pyruvate, or citrate) or inhibitors of enzymes (ACLY, ACSS2, or PDH) involved in replenishing acetyl-CoA pools. After treatment, cells were harvested and processed using sci-Plex and trajectories constructed for each cell line (FIGS. 39 and 40).
(§2) For 96-well experiments, adherent cells were trypsinized, washed with PBS and plated in tissue culture treated 96 well flat bottom plates (Thermo Fisher Scientific, cat no. 12-656-66) at 25,000 cells per well in 100 μL of media. Suspension cells were washed with PBS and plated in 96 well V-bottom tissue culture plates (Thermo Fisher Scientific, cat no. 549935) at 25,000 cells per well in 100 μL of media. Cells were allowed to recover for 24 hours before treatment with 1 μL of a 1:10 dilution of the appropriate compound or vehicle in PBS to maintain a vehicle concentration of 0.1% for all wells. Cells were then exposed to small molecules at the specified concentration for either 24 or 72 hours. For experiments where cells were co-treated with HDAC inhibitors and either acetate, pyruvate, citrate, ACSS2 inhibitor (EMD Millipore Inc., Cat No. 533756), ACLY inhibitor (Cayman Chemicals, BMS-303141 Cat No. 943962-47-8) or PDH inhibitor (Cayman Chemicals, Cat No. 504817), cells were treated 24 hours after plating and harvested after 24 hours. In this set of experiments, all wells contained a final concentration of 0.2% DMSO to match treatment with both the HDAC inhibitor and inhibitors of metabolic processes.
(§3) Gene expression profiles were visualized with Monocle 3, which uses UMAP to project them into a two or three dimensional space. Briefly, Monocle 3 first calculates size factors for every cell. Size factors were calculated as the log UMI counts observed in a single cell divided by the geometric mean of log UMI counts from all measured cells. After scaling each nucleus' UMI counts by its library size factor, Monocle3 adds a pseudocount of 1, and log transforms the counts. Next, these log-transformed profiles are projected onto the top 25 principal components. These PCA coordinates were transformed by Monocle 3 (using an approach similar to the removeBatchEffect( ) function in the limma package (42)) according to the model ‘˜log(UMIs)+replicate’ (FIG. 9) or ‘log(UMIs)+viability+proliferation index+replicate’. Adjusted PCA coordinates for each cell are used to initialize UMAP. Unless otherwise noted, UMAP was run with the following parameters: 50 nearest neighbors, min_dist=0.1, inter-cell distance assessed by cosine similarity. UMAP projection of cells after dual HDAC inhibition and acetyl-COA precursor supplementation or acetyl-CoA generating enzyme inhibition was performed as described with the exception that PCA initialization was performed on the top 1000 most overdispersed genes. Louvain community detection was then performed on this UMAP space using the python package ‘louvain’. Trajectory reconstruction was then performed as described in (21).

MCF7 = assay: as above; conditions: 24 hours
Text: as §1, §2, §3

A549 [5] = assay: pilot sci-Plex experiment (sci-RNA-seq2), four compounds; conditions: A549, 24 hours, seven doses
Procedure: We exposed A549, a human lung adenocarcinoma cell line, to one of four compounds: dexamethasone (a corticosteroid agonist), nutlin-3a (a p53-Mdm2 antagonist), BMS-345541 (an inhibitor of nuclear factor kB-dependent transcription), or vorinostat [suberoylanilide hydroxamic acid (SAHA), an HDAC inhibitor], for 24 hours across seven doses in triplicate for a total of 84 drug-dose-replicate combinations and additional vehicle controls (FIG. 6A and FIG. 7A). We labeled nuclei from each well and subjected them to sci-RNA-seq2 (FIG. 7, B to D, and Table 1).
To quantify the “population average” transcriptional response of A549 cells to each of the four drugs, we modeled each gene's expression as a function of dose through generalized linear regression. […] Additionally, we evaluated whether the number of cells recovered at each concentration could be used to infer toxicity akin to traditional screens.

A549 [6] = assay: sci-Plex of A549 cells treated for 72 hours with one of 48 compounds; conditions: A549, 72 hours
Procedure: Such heterogeneity could be explained by cells executing a defined transcriptional program asynchronously, with the dose of drug that the cells are exposed to modulating the rates of their progression through it. To test this hypothesis, we sequenced the transcriptomes of 64,440 A549 cells that were treated for 72 hours with one of 48 compounds, including many of the HDAC inhibitors from the large sci-Plex screen.
For 96-well experiments, adherent cells were trypsinized, washed with PBS and plated in tissue culture treated 96 well flat bottom plates (Thermo Fisher Scientific, cat no. 12-656-66) at 25,000 cells per well in 100 μL of media. Suspension cells were washed with PBS and plated in 96 well V-bottom tissue culture plates (Thermo Fisher Scientific, cat no. 549935) at 25,000 cells per well in 100 μL of media. Cells were allowed to recover for 24 hours before treatment with 1 μL of a 1:10 dilution of the appropriate compound or vehicle in PBS to maintain a vehicle concentration of 0.1% for all wells. […]
To organize cells treated with HDAC inhibitors into a trajectory cells were sampled to equalize the number of cells represented between the three cell lines or between treatments at 24 and 72 hrs. […] All other cells' pseudodoses was measured as the geodesic distance between their nearest principal graph node to an origin node.

Q: For `CN(C)Cc1c(C(=O)NCCOc2ccc(C(=O)NO)cc2)oc2ccccc12` [abexinostat], which acetylated lysine levels [1] is on record?
A: markedly increased acetylated lysine levels

Q: With `CC1(C)O[C@@H]2C[C@H]3[C@@H]4CCC5=CC(=O)C=C[C@]5(C)[C@@]4(F)[C@@H](O)C[C@]3(C)[C@]2(C(=O)CO)O1` [triamcinolone acetonide] as the molecule, how does the “share of the cells of one small UMAP cluster that were treated with the compound” value (A549 [2]; cluster 18, Fisher's exact test FDR<1%) read?
A: 95%

Q: Which “distinct transcriptional states induced by the same drug (focal enrichments in UMAP)” value (A549 [2]) does the source give for `C/C(=C\c1csc(C)n1)[C@@H]1C[C@@H]2O[C@@H]2CCC[C@H](C)[C@H](O)[C@@H](C)C(=O)C(C)(C)[C@@H](O)CC(=O)O1` [epothilone A] here?
A: associated with three such focal enrichments

Q: How did the “distinct transcriptional states induced by the same drug (focal enrichments in UMAP)” value (A549 [2]) turn out when `C/C(=C\c1csc(C)n1)[C@@H]1C[C@@H]2O[C@]2(C)CCC[C@H](C)[C@H](O)[C@@H](C)C(=O)C(C)(C)[C@@H](O)CC(=O)O1` [epothilone B] was run?
A: associated with three such focal enrichments

Q: What does the source list for `O=C(CCCCCCC(=O)Nc1ccccc1)NO` [SAHA, suberoylanilide hydroxamic acid]?
A: accessibility of non-coding sites upstream of the COPS7A locus [3]: dose dependent accessibility; dosage-dependent change of the chromatin regulatory landscape ([3]; seven concentrations): increasingly altered regulatory landscapes with higher doses

Q: `COc1ccc(-c2ccccc2)cc1NS(=O)(=O)c1cc(Cl)cc(Cl)c1O` [ACLY inhibitor] was tested. Which “shift of pracinostat treated cells along the HDAC inhibitor trajectory” value (A549 [4]) did it give?
A: no such shift was observed

Q: What about the “shift of pracinostat treated cells along the HDAC inhibitor trajectory” value (MCF7) of the same molecule?
A: shifted cells farther along the HDAC inhibitor trajectory

Q: What does the source list for `COCCNC(=O)Nc1ccc2nc(-c3cccs3)c(-c3cccs3)nc2c1` [ACSS2 inhibitor]?
A: shift of pracinostat treated cells along the HDAC inhibitor trajectory (A549 [4]): no such shift was observed; shift of pracinostat treated cells along the HDAC inhibitor trajectory (MCF7): shifted cells farther along the HDAC inhibitor trajectory

Q: For `O=C(O)CC(O)(CC(=O)O)C(=O)O` [citrate], which “shift of pracinostat treated cells along the HDAC inhibitor trajectory” value (A549 [4]) is on record?
A: capable of blocking pracinostat treated cells from reaching the end of the HDAC inhibitor trajectory

Q: What about the “shift of pracinostat treated cells along the HDAC inhibitor trajectory” value (MCF7) of the same molecule?
A: capable of blocking pracinostat treated cells from reaching the end of the HDAC inhibitor trajectory

Q: `CC(=O)O` [acetate] was tested. Which “shift of pracinostat treated cells along the HDAC inhibitor trajectory” value (A549 [4]) did it give?
A: capable of blocking pracinostat treated cells from reaching the end of the HDAC inhibitor trajectory

Q: What about the “shift of pracinostat treated cells along the HDAC inhibitor trajectory” value (MCF7) of the same molecule?
A: capable of blocking pracinostat treated cells from reaching the end of the HDAC inhibitor trajectory

Q: With `CCCCc1nc2cc(/C=C/C(=O)NO)ccc2n1CCN(CC)CC` [pracinostat] as the molecule, how does the acetylated lysine levels [1] read?
A: markedly increased acetylated lysine levels

Q: And the “heterogeneity of cell response along the HDAC inhibitor pseudodose trajectory at each dose” value (A549 [2])?
A: homogeneous responses

Q: `COc1ccc(C2=N[C@@H](c3ccc(Cl)cc3)[C@@H](c3ccc(Cl)cc3)N2C(=O)N2CCNC(=O)C2)c(OC(C)C)c1` [nutlin-3a] was tested. Which “drug-specific pathways revealed by gene ontology analysis of differentially expressed genes” value (A549 [5]) did it give?
A: p53 signaling

Q: How did the “focal concentrations of cells in coembedded UMAP projection, 72 hours versus 24 hours” value (A549 [6]) turn out when `Cc1nc(-c2cccnc2)sc1C(=O)Nc1ccccc1-c1cn2c(CN3CCOCC3)csc2n1` [SRT1024] was run?
A: new focal concentrations of cells at 72 hours
